This is an account of results in patent publication US6451831B1, “Agent for hypoalbuminaemia” (Nippon Zoki Pharmaceutical Co., Ltd., priority 2001, dated 2002).

Each structure is given as a SMILES string.

In series [1] the test system is patients suffering from hypoalbuminaemia (serum albumin value less than 3.0 g/dL). Nature of the series: Clinical test: serum albumin values in patients suffering from hypoalbuminaemia. The class given is in vivo, human. Here is the method: The compound of the present invention (Compound 21 ) was administered to 6 patients suffering from hypoalbuminaemia (serum albumin value was less than 3.0 g/dL) at the dose of 200 mg/day (dosage for only Patient 1 was 400 mg/day). Serum albumin values were compared between before and after administration for 24 weeks (after 16 weeks in case of only Patient 2). […] In another case of tested subjects showing a normal value of serum albumin, any change of the value was not noted by the administration of the compounds of the present invention.

A further series deals with patients. Nature of the series: Clinical tests: toxicity and side effects. The class given is in vivo, human. The settings on record: clinically confirmed.

For `CN1C(=O)NC(=O)C1O` (stereo not drawn) [Compound 21, 5-Hydroxy-1-methylhydantoin], the “Effect on serum albumin values (in words)” value in series [1] (6 patients with hypoalbuminaemia, 200 mg/day (Patient 1: 400 mg/day), 24 weeks (Patient 2: 16 weeks), paired t-test) is “significantly increased”. Further, the “Serum albumin value After Administration for 24 weeks” value in series [1] (Patient 1, 400 mg/day, 24 weeks, before administration 1.7 g/dL) was found to be 2.1 g/dL; in series [1] (Patient 2, 200 mg/day, after 16 weeks according to text, before administration 2.0 g/dL), 2.3 g/dL; in series [1] (Patient 3, 200 mg/day, 24 weeks, before administration 2.3 g/dL), 3.4 g/dL; in series [1] (Patient 4, 200 mg/day, 24 weeks, before administration 2.4 g/dL), 2.7 g/dL; in series [1] (Patient 5, 200 mg/day, 24 weeks, before administration 2.5 g/dL), 3.2 g/dL; in series [1] (Patient 6, 200 mg/day, 24 weeks, before administration 2.7 g/dL), 3.0 g/dL. For the same compound, in series [1] (mean of 6 patients, before administration 2.3 ± 0.2 g/dL, p < 0.01, paired t-test), the “Serum albumin value After Administration for 24 weeks, Mean Value” is listed as 2.8 ± 0.2 g/dL. For the same compound, the “Toxicity and side effects (in words)” value in the series with patients is “low toxicity and lower side effects”.
